# Test results published in patent US4264736A, “Antibiotic 890A10” (Merck & Co., Inc., priority 1979, dated 1981).
# Where a name gives a salt, the structure may show the parent alone.
# Columns and labels:
# [1] = system: Vibrio percolans ATCC 8461; assay: 890 Assay Units, agar plate disc-diffusion, cephaloridine standard; assay type: cell-based
# Protocol: II. Assay Procedure for Determining "890 Assay Units"
# A conventional agar plate disc-diffusion method is employed using Vibrio percolans ATCC 8461 as tester organism. Cephaloridine is employed as a standard. Plates containing Vibrio percolans ATCC 8461 are prepared as follows. A culture of Vibrio percolans ATCC 8461 is incubated in nutrient broth-yeast extract overnight on a rotary shaker at 28° C. and then diluted to a density of 60% transmittance at 660 nm. A 33.2 ml. portion of this diluted culture is added to 1 liter of a medium composed of nutrient agar plus 0.2% yeast extract maintained at 46° C. The inoculated agar-containing medium is poured into 100×15 mn. plastic-petri dishes, 10 ml. per dish, chilled, and maintained at 2°-4° C. for up to 5 days before use.
# The concentration of cephaloridine which is equivalent to 1 unit/ml. of 890A1 is determined by assay on plates prepared as above, but containing 5 ml. of inoculated medium per plate, as follows. Four concentrations of cephaloridine constitute the standard--3.12, 6.25, 12.5 and 25 mcg per ml. with the 12.5 mcg per ml. as a reference solution. The zone diameters on a 5 ml. plate for the standard are as follows:
# A unit is defined as the amount of antibiotic per ml. producing a 25 mm. zone of inhibition on a 5 ml. plate as described in section I above. Therefore, in this assay a concentration of 12.5 mcg per ml. of cephaloridine is considered equivalent to 1 unit of 890A1 per ml. Since the slope of the line for cephaloridine is 4.0 calculations of the potency of a sample are made using a slope of 4.0
# [2] = Hydroxylamine reaction (A300 decrease); assay type: physicochemical
# From the text: The disodium salt of antibiotic 890A10 has an absorption maximum at 299 nm and a minimum at 243 nm at neutral pH in water. The E% at 300 nm of the most highly purified preparation of disodium salt is 214. The ratio A300 /A250 is 3.33 for the most purified sample, and the ratio A300 /A220 is 2.05. […] More than 94% of the absorption at 300 nm can be extinguished by reaction with hydroxylamine at neutral pH. The absorbance at 250 nm also decreases upon reaction with hydroxylamine, and the ratio of the absorbance decrease at 250 nm to the decrease at 300 nm, is approximately 0.16. […]
# Antibiotic 890A10 reacts with hydroxylamine and produces a substance with greatly diminished absorbance at 300 nm. This provides the basis for a quantitative assay of the antibiotic 890A10.
# The solution to be assayed is brought to 0.05 M in potassium phosphate, pH 7.4 by adding 1/20th volume of a solution containing 0.8 M K2 HPO4 and 0.2 M KH2 PO4 . Then one-hundredth volume of 1 M hydroxylamine hydrochloride is added, and the absorbance at 300 nm is measured at intervals of one-half to two minutes. […] First-order kinetics are assumed and a half-life is estimated from the absorbance decrease during the first ten minutes. From this half-life, the time is estimated beyond which no further absorbance decrease should be observed and observations are continued beyond that time. […]
Compound,concentration equivalent to 1 unit of 890A1 per ml ([1]; 25 mm zone of inhibition on a 5 ml plate) [mcg per ml],"zone of inhibition at 3.12 µg/mL ([1]; Comamonas terrigena, ATCC8461, 3.12 mcg/ml, 5 ml plate, read-out: Zone Diameter) [mm]","zone of inhibition at 6.25 µg/mL ([1]; Comamonas terrigena, ATCC8461, 6.25 mcg/ml, 5 ml plate, read-out: Zone Diameter) [mm]","zone of inhibition at 12.5 µg/mL ([1]; Comamonas terrigena, ATCC8461, 12.5 mcg/ml (reference solution), 5 ml plate, read-out: Zone Diameter) [mm]","zone of inhibition at 25 µg/mL ([1]; Comamonas terrigena, ATCC8461, 25 mcg/ml, 5 ml plate, read-out: Zone Diameter) [mm]",absorption at 300 nm extinguished by reaction with hydroxylamine ([2]; neutral pH),"half-life of reaction with hydroxylamine ([2]; room temperature, apparently first order, A300 decrease, pH 7.4) [s]"
O=C(Cc1cccs1)N[C@@H]1C(=O)N2C(C(=O)[O-])=C(C[n+]3ccccc3)CS[C@H]12 [cephaloridine],12.5,16.8,22.3,25,29.6,,
CC(=O)NCCSC1=C(C(=O)O)N2C(=O)C(C(C)OS(=O)(=O)O)C2C1 (stereo not shown) [disodium salt of antibiotic 890A10],,,,,,More than 94%,23 to 60
